Assay results: patent publication US10736906B2, “Method to enhance tissue regeneration” (CHILDREN'S MEDICAL CENTER CORPORATION, priority 2006, dated 2020)

Key:
[1] = test system: cKit+Sca1+ Lineage- (KSL) bone marrow cells; experiment: murine transplantation assay with purified HSCs, CFU-S12; type: in vivo, mice
Description: To assess whether prostaglandin levels regulate wnt activity in HSCs, murine transplantation assays were performed utilizing purified HSCs. FACS-isolated cKit+Sca1+ Lineage—(KSL) bone marrow cells were transplanted into lethally irradiated recipients.

[2] = test system: liver growth; experiment: chart of prostaglandin derivatives: relative potency to increase liver growth; conditions: zebrafish, in vivo
Text: Another embodiment of the present invention provides for compositions and methods that modulate vertebrate tissue growth or regeneration via the prostaglandin signaling pathway. For example, prostaglandin E2 enhances vertebrate tissue regeneration. A chemical screen in zebrafish identified the prostaglandin signaling pathway as a potent modifier of liver growth during embryonic development. […] As many molecular pathways controlling embryonic development mediate tissue homeostasis in the adult, the effects of prostaglandin signaling during liver regeneration were examined. […] Fish were revived and allowed to heal in fish water.

[3] = test system: liver growth; experiment: liver growth, early experimental evidence; type: in vivo
[4] = test system: adult zebrafish liver; experiment: liver regeneration and wound healing after 1/3 partial hepatectomy in adult zebrafish; type: in vivo; conditions: for wound healing at the incision site: skin wounds following partial hepatectomy
Text: Following ⅓ partial hepatectomy, the zebrafish liver regenerates within five days to seven days.
As many molecular pathways controlling embryonic development mediate tissue homeostasis in the adult, the effects of prostaglandin signaling during liver regeneration were examined. […] Fish were revived and allowed to heal in fish water.
To test the requirement of functional prostaglandin signaling during regeneration, fish were exposed to the dual-specific cox inhibitor, indomethacin, from hour 6 to hour 18 following partial hepatectomy.
Liver Resection: Folling administration of tricaine anesthetic, ⅓ partial hepaectomy of the adult zebrafish liver was performed under brightfield imaging on a dissection microscope. An incision was made using microdissection scissors posterior to the heart on the left lateral portion of the abdomen.

[5] = test system: wnt activity; experiment: wnt activity in TOP:dGFP wnt reporter zebrafish embryos (in situ hybridization and qPCR for GFP); type: in vivo; conditions: for wnt activity in the developing brain, liver and gut: developing zebrafish, TOP:dGFP
Text: An embodiment of the present invention provides for manipulation of the genetic interaction between PGE2 and wnt/β-catenin signaling, which regulates developmental specification of stem cells and regeneration. Briefly, prostaglandin (PG) E2 is required for the formation and function of hematopoietic stem cells (HSCs) in vivo, yet its mechanism of action in these cells is not completely understood.
The following RNA probes were used to detect alterations in endodermal and liver development: GFP, LFABP, sterol carrier protein, transferrin, foxA3, insulin, trypsin, and IFABP. Changes in expression compared to wild-type controls are reported as the # altered/# scored per genotype; a minimum of three independent experiments were conducted per analysis.

[6] = test system: hematopoietic stem cells (HSCs); experiment: HSC formation in zebrafish embryos (runx1, c-myb expression), with heat-shock inducible wnt modulators; type: in vivo
Description: The functional consequences of the PGE2/wnt interaction in HSC formation during embryonic development were analyzed by examining the expression of the HSC markers runx1 and c-myb. Heat shock induction of a canonical wnt ligand, wnt8, at ten somites led to enhanced HSC formation at 36 hours post fertilization (hpf; 47/54). When wnt8 induction was followed by exposure to indomethacin (10 μM, 16-36 hpf) HSC formation was reduced to or below wild-type levels ( 43/46).
Inducible negative regulators of wnt activity were used in combination with dmPGE2 treatment to functionally localize the interaction between the PG and wnt pathways. Dkk1 antagonizes the wnt pathway at the level of membrane binding and the initiation of the wnt signaling cascade. Dkk induction in hs:dkk1 transgenic embryos inhibited HSC development ( 34/49). Exposure to exogenous dmPGE2 rescued the dkk1-mediated effect on HSC formation ( 28/51, 10 μM, 16-36 hpf). Axin is a central component of the β-catenin destruction complex and thus a negative regulator of the wnt signaling cascade in the cytosolic compartment. […] Similarly, a dominant-negative form of the β-catenin transcriptional co-activator TCF abolished HSC formation ( 60/62), and no rescue was affected via dmPGE2 exposure.
The wnt pathway can actively enhance HSC proliferation through signaling from the HSC niche as well as within HSCs themselves. PGE2 regulates HSC formation at the level of the vascular niche as well as within the HSCs. North et al., 2007. In order to identify transcriptional programs regulated by the wnt signaling pathway, genes involved in HSC development were analyzed by qPCR.
The functional interaction of signaling processes in the zebrafish, down stream from PG, was explored by increasing camp production using forskolin and inhibiting PKA with H89. […] Furthermore, the rescue of dkk effects by dmPGE2 was eliminated by H89.
Heat shock activation/repression of wnt signaling: Embryonic heat-shock experiments were conducted at 38° C. for a duration of 20 minutes unless otherwise noted. Genotype was determined by the presence of GFP fluorescence at three hours post heat-induction, non-fluorescence (wild-type) siblings were used as controls.
(§1) In situ hybridization: Paraformaldehyde (PFA)-fixed embryos were processed for in situ hybridization using standard zebrafish protocols such as those found on the internet at, for example, ZFIN: The Zebrafish Model Organism Database (hosted by the Univ. Oregon, Eugene, Oreg.). The following RNA probes were used to detect alterations in endodermal and liver development: GFP, LFABP, sterol carrier protein, transferrin, foxA3, insulin, trypsin, and IFABP. Changes in expression compared to wild-type controls are reported as the # altered/# scored per genotype; a minimum of three independent experiments were conducted per analysis.

[7] = test system: endodermal and hepatic progenitor cells; experiment: endodermal progenitors (foxA3) and liver size (lfabp) in zebrafish embryos, in situ hybridization; type: in vivo
Text: To determine whether the interaction of PGE2 and wnt/β-catenin signaling is a conserved regulator of stem and progenitor cell populations in other tissues, endodermal and hepatic progenitor cells were examined during zebrafish development. […] ( 51/56), as detected by expression of liver fatty acid binding protein (lfabp). […] This finding is supported by the detection of various components of PGE2 signaling in foxA3 positive cells.
The APC mutant zebrafish to model constitutive activation of the wnt signaling pathway, was used to characterize the effects of the wnt/PG interaction in foxA3+ endodermal progenitors at 48 hpf. APC+/− embryos have enhanced foxA3 expression and an increased liver bud ( 88/93) as well as increased liver size ( 68/75) compared to wild-type siblings. […] Both cyclinD1 and cmyc were co-regulated by wnt and prostaglandin during development which may indicate that PGE2 exerts its effects on stem cells through enhanced cell cycling and proliferation.
as §1

[8] = test system: stem and progenitor cell population; experiment: hematopoietic recovery following irradiation in the adult zebrafish (kidney marrow); type: in vivo; conditions: zebrafish
Description: It has been hypothesized that wnt activation regulates HSC self-renewal and repopulation. Wnt activation is also thought to be involved in carcinogenesis, however, making the concept of direct enhancement of wnt signaling problematic. Whether regulation of wnt activity by prostaglandin can effectively modulate HSC homeostasis in the adult, was determined by observing hematopoietic recovery following irradiation in the zebrafish. […] APCMin/+ mice have elevated β-catenin levels due to loss of APC function in the destruction complex.

Compound: O=C1Nc2cc(Br)ccc2/C1=C1/Nc2ccccc2/C1=N\O [BIO]
- CFU-S12 increase ([1]; BIO 0.05 mg/kg, p=0.03): 2 fold
- early spleen colony formation following bone marrow transplantation ([1]; FIG. 11 legend): enhances early spleen colony formation

Compound: CCCCC[C@H](O)/C=C/[C@H]1[C@H](O)CC(=O)[C@@H]1C/C=C/CCCC(=O)O (relative stereo) [5-trans PGE2]
- toxicity noted in liver growth chart [2]: toxic

Compound: CC1=C(/C=C/C(C)=C/C=C/C(C)=C/CO)C(C)(C)CCC1 [Retinol]
- effect on liver growth [3]: enhanced

Compound: CCCCC[C@H](O)/C=C/[C@H]1[C@H](O)CC(=O)[C@@H]1C/C=C\CCCC(=O)O [PGE2, Prostaglandin E2]
- wound healing at the incision site [4]: heal faster and to a greater extent
- wnt activity in the developing brain, liver and gut [5]: increased wnt activity

Compound: CCCCC(C)(C)[C@H](O)/C=C/[C@H]1[C@H](O)CC(=O)[C@@H]1C/C=C\CCCC(=O)O [dmPGE2, dimethyl-prostaglandin E2]
- rescue of axin-mediated inhibition of HSC formation ([6]; axin induced at ten somites): could not be overcome
- rescue of dominant-negative TCF-mediated loss of HSC formation ([6]; dnTCF induction): no rescue
- rescue of dkk1-mediated effect on HSC formation (# altered/# scored) ([6]; hs:dkk1 embryos, 10 μM, 16-36 hpf): 28/51
- effects of wnt8/dkk1 induction on runx1, cmyb, flk1, ephB2 expression (qPCR) ([6]; indomethacin added to wnt8, dmPGE2 added to dkk1): could be modified
- enhanced endodermal progenitors (# altered/# scored) ([7]; APC+/− embryos): 47/54
- enhanced liver size (# altered/# scored) ([7]; APC+/− embryos): 75/81
- rescue of liver growth inhibited by morpholino knock-down of cox1 or cox2 ([7]; exogenous dmPGE2): rescued fully
- expanded foxA3 population with increased liver anlage (# altered/# scored) ([7]; wild-type embryos): 75/83
- increased liver size (# altered/# scored) ([7]; wild-type embryos): 88/92
- liver size / liver development compared to controls ([7]; zebrafish embryos, by 72 hours post-fertilization): enhanced liver development
- liver vascularity ([4]; compared to untreated fish): increases in liver vascularity
- liver regrowth compared to controls ([4]; exposure following resection (indomethacin hour 6 to 18; day 1 and day 3)): enhanced liver regrowth
- complete regeneration of the liver ([4]; indomethacin: by day 5 post-resection): faster complete regeneration
- wound healing at the incision site [4]: more rapid wound healing
- kidney marrow repopulation following injury [8]: enhance kidney marrow repopulation
- wnt-active cells in the aorta-gonad mesonephros (AGM) ([5]; 10 μM, vs. 3±1.8 cells): 12±3.4 cells
- wnt activity in the developing brain, liver and gut [5]: enhance wnt signaling
- induction of wnt activity, qPCR for GFP ([5]; whole embryo extracts): 2 fold

Compound: CC1=C(/C=C/C(C)=C/C=C/C(C)=C/C=C/C=C(C)/C=C/C=C(C)/C=C/C2=C(C)CCCC2(C)C)C(C)(C)CCC1 [Beta-Carotene]
- effect on liver growth [3]: inhibited

Compound: Vitamin D
- effect on liver growth [3]: enhanced

Compound: O=S(=O)(NCCNC/C=C/c1ccc(Br)cc1)c1cccc2cnccc12 [H89]
- effect on increased HSC formation induced by dmPGE2 ([6]; PKA inhibition): reduced the increased HSC formation
- effect on the rescue of dkk effects by dmPGE2 ([6]; PKA inhibition): eliminated

Compound: CC1=C(/C=C/C(C)=C/C=C/C(C)=C/C(=O)O)C(C)(C)CCC1 [All-trans retinoic acid]
- effect on liver growth [3]: enhanced

Compound: BMS189453
- effect on liver growth [3]: inhibited

Compound: C[C@]12CC[C@@H]3c4ccc(O)cc4CC[C@H]3[C@@H]1CC[C@@H]2O [3-estradiol]
- effect on liver growth [3]: inhibited
